Source: publication PMC9765439, “Systems-Wide Dissection of Organic Acid Assimilation in Pseudomonas aeruginosa Reveals a Novel Path To Underground Metabolism” (mBio, 2022)

What was measured:
[1] = target: T1, GltAPa (citrate synthase) (Pseudomonas aeruginosa, UniProt P14165); assay: DTNB (TNB release) spectrophotometric assay, […] nm; type: biochemical; details: 0.5 mM oxaloacetate; 50 mM HEPES pH 7.5, 0.1 M KCl, 0.54 M glycerol; 37 °C
T1 construct: gene gltA; full-length ORF, 429 aa; pET-19m, N-terminal TEV-cleavable His6 tag, cut; E. coli host; hexamer in asymmetric unit
T1 sequence (P14165 1-428): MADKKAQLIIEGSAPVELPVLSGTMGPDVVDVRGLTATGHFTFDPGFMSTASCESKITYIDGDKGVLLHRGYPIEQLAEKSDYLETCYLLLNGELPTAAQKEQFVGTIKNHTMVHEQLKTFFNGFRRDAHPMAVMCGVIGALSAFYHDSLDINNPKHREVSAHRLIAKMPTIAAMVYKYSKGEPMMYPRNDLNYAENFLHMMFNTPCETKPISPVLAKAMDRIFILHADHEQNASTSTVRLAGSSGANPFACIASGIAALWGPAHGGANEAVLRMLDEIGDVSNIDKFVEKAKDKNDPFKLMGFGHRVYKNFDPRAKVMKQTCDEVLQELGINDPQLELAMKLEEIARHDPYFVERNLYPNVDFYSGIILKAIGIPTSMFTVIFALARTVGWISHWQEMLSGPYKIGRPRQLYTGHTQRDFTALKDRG

[2] = target: T2, PrpCPa (2-methylcitrate synthase, 2-MCS) (Pseudomonas aeruginosa, UniProt Q9I5E3); assay: X-ray crystallography; type: binding; details: 2.5 mM oxaloacetate in crystallisation, Bis-Tris pH 5.5; active site of chain D only
T2 construct: gene prpC; pET-19m, N-terminal TEV-cleavable His6 tag, cut; E. coli host; homodimer
T2 sequence (Q9I5E3 1-375): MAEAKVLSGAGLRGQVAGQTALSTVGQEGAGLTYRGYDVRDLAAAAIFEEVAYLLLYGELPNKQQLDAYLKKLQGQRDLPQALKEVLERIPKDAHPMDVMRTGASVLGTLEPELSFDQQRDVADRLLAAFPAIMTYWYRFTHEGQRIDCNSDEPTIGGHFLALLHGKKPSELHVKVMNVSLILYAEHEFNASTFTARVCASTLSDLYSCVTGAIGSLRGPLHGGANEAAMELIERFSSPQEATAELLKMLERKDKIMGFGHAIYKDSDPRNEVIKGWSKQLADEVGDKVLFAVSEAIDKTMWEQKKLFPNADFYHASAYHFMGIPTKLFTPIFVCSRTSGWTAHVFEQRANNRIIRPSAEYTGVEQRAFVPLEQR

CC(=O)SCCNC(=O)CCNC(=O)[C@H](O)C(C)(C)COP(=O)(O)OP(=O)(O)OC[C@H]1O[C@@H](n2cnc3c(N)ncnc32)[C@H](O)[C@@H]1OP(=O)(O)O [acetyl-CoA]
DTNB (TNB release) spectrophotometric assay, 412 nm [1]: Purified GltAPa is a citrate synthase with no detectable 2-methylcitrate synthase activity.

O=C(O)CC(=O)C(=O)O [oxaloacetate]
X-ray crystallography [2]: Crystal structure of oxaloacetate-bound PrpCPa represented in cartoon (PDB: 6S87).
